Test results: article PMC8965563, “PaP1, a Broad-Spectrum Lysin-Derived Cationic Peptide to Treat Polymicrobial Skin Infections” (Frontiers in Microbiology, 2022)
Where two headings read alike, the source gives them in different places.

How the values were obtained:
[1] = test system: S. aureus strain NRS384 (MRSA); experiment: Murine burn wound infection model, prophylactic; assay type: in vivo, Staphylococcus aureus; settings: monotherapy: 1% (wt/vol) PaP1, or 0.02% or 0.2% (wt/vol) mupirocin, topical in diH2O, 1 h before and 2 h after infection with 10^6 CFU; female CD1 mice, third-degree burns; counts 3 h post-infection; control ~10^6 CFU/g tissue; geometric mean
[2] = test system: P. aeruginosa strain PAO1; settings: 20 mM Tris–HCl, pH 7.2, 1 h, 37°C, log-phase bacteria ~10^5–10^6 CFU/ml, limit of detection 10 CFU/ml, triplicate experiments
[3] = peptide 10 μg/ml, serial dilution and plating

Molecule | reduction of MRSA viability vs untreated control [1] | reduction of bacterial viability (log10-fold kill) [2, 3] | reduction of bacterial viability (log10-fold kill) ([2]; peptide 5 μg/ml, plating)
C/C(=C\C(=O)OCCCCCCCCC(=O)O)C[C@@H]1OC[C@H](C[C@@H]2O[C@H]2[C@@H](C)[C@H](C)O)[C@@H](O)[C@H]1O [mupirocin] | 1.1–1.2 log10-fold |  | 
NAGDYAGAAEQFLRWNKAGGKVLPGLVRRRA [PaP1-2] |  | 1.2 log10-fold | 
NAGDYAGAAEQFLRWNKAGGKVLPGLVRRRASERELFLGAA [PaP1-1] |  | ineffective | ineffective
NAGDYAGAAEQFLRWNKAGGKVLPGLVRRRK [PaP1-3] |  | below the limit of detection | 2.4 log10-fold
QYCANDRVGNLWVEAQEGRKPLRSSAKFKGGAQRRSGLA [PaP1-6] |  | retains bactericidal activity | 
